Patent US12239643B2, “Therapeutic agent for inflammatory diseases, autoimmune diseases, fibrotic diseases, and cancer diseases” (MEIJI SEIKA PHARMA CO., LTD., priority 2018, dated 2025)

Legend:
[1] = system: HCT-116 (colorectal cancer); experiment: Antitumor activity: growth inhibition of HCT-116; format: cell-based; conditions: Homo sapiens, 120 h; HCT-116, culturing for 5 days; read-out: 50% growth inhibitory concentration
Description: As antitumor activity, 50% growth inhibitory concentration of various cancer cells (CEM-C1 (blood cancer (leukemia)), SU-DHL-4 (blood cancer (lymphoma)), A549 (lung cancer), HCT-116 (colorectal cancer), and Daoy (brain tumor)) was calculated as follows. First, each of the above cancer cells was seeded on a 384-well plate and cultured overnight at 37° C. under 5% CO2. After that, the test compound was added at various concentrations on the next day, and each number of cells was measured after culturing for 5 days. The 50% growth inhibitory concentration was defined as the test compound concentration at which the number of cells measured is an intermediate value between the number of cells after culture for 5 days under the same conditions without the addition of the test compound and the number of cells at the time of seeding (before the start of culture). The measurement results obtained by measuring the 50% growth inhibitory concentration of the test compound by the above method were evaluated in accordance with the following evaluated basis; A: less than 10 μM, B: 10 μM or more and less than 50 μM, and C: 50 μM or more. As a result of using apremilast as the test compound, the evaluation was C in all cancer cells. On the other hand, as a result of using the compound obtained in Example 248 as the test compound, the evaluation was A in all cancer cells.

[2] = system: type II collagen-induced arthritis, DBA-1 JNCrlj mice; experiment: Mouse CIA (arthritis) model; format: in vivo; conditions: oral, day 31 after the initial sensitization of type II collagen
Description: Evaluation was carried out using male DBA-1 JNCrlj mice (6 to 8 weeks of age). First, 150 μg/0.1 mL of type II collagen (bovine)/ACF emulsion was intradermally administered to the mouse ridge to cause primary sensitization. Twenty-one days later, 100 μg/0.1 mL of type II collagen (bovine)/AIF emulsion was similarly intradermally administered to the ridge to cause secondary sensitization. Note that, in the blank group, saline was intradermally administered to the ridge at the first sensitization and second sensitization. Next, for 10 days from the day of secondary sensitization, 0.1 to 20 mg/kg of the test compound dissolved or suspended in 0.5% w/v methylcellulose (0.5% MC) was orally administered once or twice a day.
The arthritis score of each limb was judged to be 0 to 4 by visual inspection and palpation (0: no symptoms, 1: one finger is red and swollen, 2: two or more fingers or in step is red and swollen, 3: fingers, in step, and heel are red and swollen, 4: movement of joints throughout the limb is poor), and the total of the limbs was used as the individual score, and the average score of the individual group administered with each test compound was calculated and used as the arthritis score. In addition, the foot volume (mL) of the left and right hind limbs was measured using a foot volume measuring device, and the edema rate was calculated by the following formula. Edema Rate (%)={(Left and Right Added Footpad Volume After Sensitization−Left and Right Added Footpad Volume Before Sensitization)/Left and Right Added Footpad Volume Before Sensitization}×100
The arthritis score of each test compound on day 31 after the initial sensitization of type II collagen was evaluated by the above method in accordance with the following evaluated basis; A: less than 2, B: 2 or more and less than 3, and C: 3 or more. In addition, the edema rate of each test compound on day 31 after the initial sensitization of type II collagen was evaluated in accordance with the following evaluated basis; A: less than 10%, B: 10% or more and less than 20%, and C: 20% or more. As a result of using apremilast as the test compound, the arthritis score and the edema rate were both evaluated as B. On the other hand, as a result of using the compound obtained in Example 248 as the test compound, the arthritis score and the edema rate were both evaluated as A.

IL-23 = experiment: Cytokine suppression using human peripheral blood mononuclear cells: IL-23; format: cell-based; conditions: human PBMC, lipopolysaccharide 1 ng/mL; read-out: IL-23 Inhibitory Activity, Human PBMC (Test Example 4)
Description: First, peripheral blood mononuclear cells (PBMC) were separated from whole blood by specific gravity centrifugation. Then, the isolated peripheral blood mononuclear cells were added to RPMI-1640 medium (containing 10% fetal bovine serum, penicillin, streptomycin, L-glutamine, and 2-mercaptoethanol), and cultured in a 96-well plate at 37° C. under 5% CO2 for 0 to 1 hour. The test compound dissolved in dimethyl sulfoxide was added to each well, followed by further culture at 37° C. under 5% CO2 for 1 hour. A medium containing only dimethyl sulfoxide instead of the test compound was added to the control well. […]
The measurement results obtained by measuring the TNFα inhibitory activity and IL-5 inhibitory activity (50% inhibitory concentration) of the test compounds by the above method were evaluated in accordance with the following evaluated basis; A: less than 10 nM, B: 10 nM or more and less than 100 nM, and C: 100 nM or more. In addition, the measurement results obtained by measuring the IL-17A inhibitory activity, IL-23 inhibitory activity, IL-4 inhibitory activity, and IL-13 inhibitory activity (50% inhibitory concentration) of the test compounds were evaluated in accordance with the following evaluated basis; A: less than 500 nM, B: 500 nM or more and less than 5000 nM, and C: 5000 nM or more.

Row | Compound | IC50 [1] [µM] | arthritis score [2] | edema rate [2] | IC50 (IL-23) [µM]
1 | CCOc1cc([C@@H](CS(C)(=O)=O)N2C(=O)c3cccc(NC(C)=O)c3C2=O)ccc1OC [apremilast, reference compound] | ≥ 50 | B (B: 2 or more and less than 3) | B (B: 10% or more and less than 20%) | ≥ 5
2 | CC(C)(O)C(F)(F)Oc1ccc(-c2nccs2)c2oc(N3CC4CC(C3)N4)nc12 [Example 248, 1-((2-(3,6-Diazabicyclo[3.1.1]heptan-3-yl)-7-(thiazol-2-yl)benzo[d]oxazol-4-yl)oxy)-1,1-difluoro-2-methylpropan-2-ol] | < 10 | A (A: less than 2) | A (A: less than 10%) | < 0.5
